The Kd is the equilibrium constant for the complex coming apart. As usually defined, the IC50 is the midpoint of a concentration-inhibition curve.

The target of assay [1] is T1, E-selectin (Homo sapiens, UniProt P16581).
T1 sequence (P16581 whole entry): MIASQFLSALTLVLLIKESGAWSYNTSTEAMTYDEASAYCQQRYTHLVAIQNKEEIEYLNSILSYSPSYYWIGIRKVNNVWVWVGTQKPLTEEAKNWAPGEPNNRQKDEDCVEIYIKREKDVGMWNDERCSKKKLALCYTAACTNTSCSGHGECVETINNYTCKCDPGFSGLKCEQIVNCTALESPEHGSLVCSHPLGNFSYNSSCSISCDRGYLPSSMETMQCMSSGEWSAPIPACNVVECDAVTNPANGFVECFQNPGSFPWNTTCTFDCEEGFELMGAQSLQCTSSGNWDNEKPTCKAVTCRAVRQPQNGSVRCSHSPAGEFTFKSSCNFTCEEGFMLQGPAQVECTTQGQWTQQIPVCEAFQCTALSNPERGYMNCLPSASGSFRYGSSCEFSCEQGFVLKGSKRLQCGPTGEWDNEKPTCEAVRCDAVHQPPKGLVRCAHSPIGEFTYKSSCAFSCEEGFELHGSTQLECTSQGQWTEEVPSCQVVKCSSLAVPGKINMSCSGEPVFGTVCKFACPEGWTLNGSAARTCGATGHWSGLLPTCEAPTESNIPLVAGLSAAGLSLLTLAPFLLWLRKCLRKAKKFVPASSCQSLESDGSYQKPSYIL
Briefly: Binding affinity to E-selectin SCR2 domain (unknown origin) by isothermal titration calorimetry. Background: ITC needs no label: the signal is the heat of the interaction.

The nature of assay [2]: Inhibition of horseradish peroxidase coupled sialyl Lewisa-polyacrylamide polymer binding to human P-selectin/IgG chimera measured after 2 hrs in presence of TMB by colorimetric assay.
Assay [3] has as its target T1, E-selectin. Briefly: Binding affinity to sialyl LewisX mimetic 21a pretreated Blue-NHS-labelled E-selectin Lec-EGF/SCR1/SCR2 domain (unknown origin) measured after 20 mins by microscale thermophoresis. (MST reads how a fluorescent partner responds to local heating, with and without ligand.)

With `C[C@@H]1O[C@@H](O[C@@H]2CCCC[C@H]2O[C@@H]2O[C@H](CO)[C@H](O)[C@H](O[C@@H](CC3CCCCC3)C(=O)O)[C@H]2O)[C@@H](O)[C@H](O)[C@@H]1O`, the Kd in assay [1] was 60.7 µM. In the case of `CC[C@H]1C(C(=O)NCCCc2cn(CCCC(=O)Nc3cc(S(=O)(=O)O)cc4cc(S(=O)(=O)O)cc(S(=O)(=O)O)c34)nn2)CC[C@@H](O[C@@H]2O[C@H](CO)[C@H](O)[C@H](O[C@@H](CC3CCCCC3)C(=O)O)[C@H]2OC(=O)c2ccccc2)[C@@H]1O[C@@H]1O[C@@H](C)[C@@H](O)[C@@H](O)[C@@H]1O` (stereo partly drawn), the IC50 in assay [2] worked out at 82 µM. Same read-out and setting: the same measure for `COC(=O)[C@@H]1C[C@H](NC(=O)c2cc(=O)[nH]c(=O)[nH]2)[C@@H](O[C@@H]2O[C@@H](C)[C@@H](O)[C@@H](O)[C@@H]2O)[C@H](O[C@@H]2O[C@H](CO)[C@H](O)[C@H](O[C@@H](CC3CCCCC3)C(=O)O)[C@H]2OC(=O)c2ccccc2)C1`: 3390 µM; for `CC[C@H]1C(C(=O)NCCCc2cn(CCCCC(=O)Nc3cc(S(=O)(=O)O)cc4cc(S(=O)(=O)O)cc(S(=O)(=O)O)c34)nn2)CC[C@@H](O[C@@H]2O[C@H](CO)[C@H](O)[C@H](O[C@@H](CC3CCCCC3)C(=O)O)[C@H]2OC(=O)c2ccccc2)[C@@H]1O[C@@H]1O[C@@H](C)[C@@H](O)[C@@H](O)[C@@H]1O` (stereo partly drawn): 210 µM. Turning to `CO[C@@H]1O[C@H](CO)[C@@H](O[C@@H]2O[C@H](CO)[C@H](O)[C@H](O[C@]3(C(=O)O)C[C@H](O)[C@@H](NC(C)=O)[C@H]([C@H](O)[C@H](O)CO)O3)[C@H]2O)[C@H](O[C@@H]2O[C@@H](C)[C@@H](O)[C@@H](O)[C@@H]2O)[C@H]1NC(C)=O`, the IC50 in assay [2] is no less than 7000 µM. The Kd in assay [3] came to 738 µM. As for `CC[C@@H]1[C@@H](O[C@@H]2O[C@@H](C)[C@@H](O)[C@@H](O)[C@@H]2O)[C@H](O[C@@H]2O[C@H](CO)[C@H](O)[C@H](O[C@@H](CC3CCCCC3)C(=O)O)[C@H]2OC(=O)c2ccccc2)CC[C@@H]1C(=O)NCCCc1cn(CCC(=O)Nc2cc(S(=O)(=O)O)cc3cc(S(=O)(=O)O)cc(S(=O)(=O)O)c23)nn1`, in assay [2], the IC50 stood at 94 µM. `C[C@@H]1O[C@@H](O[C@@H]2[C@@H](NC(=O)c3cc(=O)[nH]c(=O)[nH]3)C[C@@H](C(=O)NCCNC(=O)COCCOCC(=O)Nc3cc(S(=O)(=O)O)cc4cc(S(=O)(=O)O)cc(S(=O)(=O)O)c34)C[C@H]2O[C@@H]2O[C@H](CO)[C@H](O)[C@H](O[C@@H](CC3CCCCC3)C(=O)O)[C@H]2OC(=O)c2ccccc2)[C@@H](O)[C@H](O)[C@@H]1O` [RIVIPANSEL]: the half-maximal inhibitory concentration (IC50) in assay [2] is 423 µM.

The values are drawn from ChEMBL document CHEMBL5579814, “Analogues of the pan-selectin antagonist rivipansel (GMI-1070)” (Eur J Med Chem, 2024).
